Assay results from the NIST ThermoML archive (doi:10.1016/j.tca.2010.04.013).
Numbers after ± are expanded uncertainties.

Key:
[1] = relative permittivity at various frequencies (dimensionless); details: 303.15 K; 101.3 kPa; Liquid; Frequency=1 MHz; capacitance measurements at 1 MHz
[2] = relative permittivity at various frequencies (dimensionless); xn = mol fraction of the nth substance listed; details: 303.15 K, 101.3 kPa, Liquid, Frequency=1 MHz, capacitance measurements at 1 MHz

CNC=O [N-methylformamide]
relative permittivity [1]: 169.76 ± 1

CNC=O [N-methylformamide] + CCO
relative permittivity ([2]; x2 = 0): 169.76 ± 1 | relative permittivity ([2]; x2 = 0.101): 144.63 ± 0.98 | relative permittivity ([2]; x2 = 0.202): 123.72 ± 0.84 | relative permittivity ([2]; x2 = 0.302): 104.17 ± 0.73 | relative permittivity ([2]; x2 = 0.402): 85.99 ± 0.61 | relative permittivity ([2]; x2 = 0.502): 71.06 ± 0.51 | relative permittivity ([2]; x2 = 0.602): 57.8 ± 0.42 | relative permittivity ([2]; x2 = 0.702): 46.91 ± 0.35 | relative permittivity ([2]; x2 = 0.802): 37.6 ± 0.29 | relative permittivity ([2]; x2 = 0.901): 29.54 ± 0.23

CNC=O [N-methylformamide] + OCCO
relative permittivity ([2]; x2 = 0): 169.76 ± 1 | relative permittivity ([2]; x2 = 0.105): 139.93 ± 0.97 | relative permittivity ([2]; x2 = 0.209): 118.26 ± 0.8 | relative permittivity ([2]; x2 = 0.312): 102.12 ± 0.68 | relative permittivity ([2]; x2 = 0.413): 87.49 ± 0.58 | relative permittivity ([2]; x2 = 0.514): 76.46 ± 0.5 | relative permittivity ([2]; x2 = 0.613): 67.14 ± 0.44 | relative permittivity ([2]; x2 = 0.711): 59.59 ± 0.39 | relative permittivity ([2]; x2 = 0.809): 52.6 ± 0.34 | relative permittivity ([2]; x2 = 0.905): 46.26 ± 0.31

CN(C)C=O [dimethylformamide]
relative permittivity [1]: 36.55 ± 0.22

CN(C)C=O [dimethylformamide] + CCO
relative permittivity ([2]; x2 = 0): 36.55 ± 0.22 | relative permittivity ([2]; x2 = 0.087): 35.57 ± 0.21 | relative permittivity ([2]; x2 = 0.169): 34.72 ± 0.21 | relative permittivity ([2]; x2 = 0.249): 33.96 ± 0.21 | relative permittivity ([2]; x2 = 0.325): 32.98 ± 0.2 | relative permittivity ([2]; x2 = 0.399): 32.16 ± 0.19 | relative permittivity ([2]; x2 = 0.469): 31.39 ± 0.19 | relative permittivity ([2]; x2 = 0.537): 30.57 ± 0.19 | relative permittivity ([2]; x2 = 0.603): 29.63 ± 0.18 | relative permittivity ([2]; x2 = 0.666): 28.78 ± 0.18 | relative permittivity ([2]; x2 = 0.726): 27.8 ± 0.17 | relative permittivity ([2]; x2 = 0.785): 27.05 ± 0.16 | relative permittivity ([2]; x2 = 0.841): 26.22 ± 0.16 | relative permittivity ([2]; x2 = 0.896): 25.39 ± 0.16 | relative permittivity ([2]; x2 = 0.949): 24.65 ± 0.15

CN(C)C=O [dimethylformamide] + OCCO
relative permittivity ([2]; x2 = 0): 36.55 ± 0.22

NC=O [formamide]
relative permittivity [1]: 106.14 ± 0.64

NC=O [formamide] + CCO
relative permittivity ([2]; x2 = 0): 106.14 ± 0.64 | relative permittivity ([2]; x2 = 0.046): 100.82 ± 0.65 | relative permittivity ([2]; x2 = 0.095): 95.19 ± 0.62 | relative permittivity ([2]; x2 = 0.146): 89.27 ± 0.59 | relative permittivity ([2]; x2 = 0.199): 82.58 ± 0.55 | relative permittivity ([2]; x2 = 0.254): 76.43 ± 0.51 | relative permittivity ([2]; x2 = 0.312): 70.03 ± 0.47 | relative permittivity ([2]; x2 = 0.374): 64.23 ± 0.43 | relative permittivity ([2]; x2 = 0.438): 57.92 ± 0.39 | relative permittivity ([2]; x2 = 0.506): 51.93 ± 0.35 | relative permittivity ([2]; x2 = 0.577): 46.28 ± 0.31 | relative permittivity ([2]; x2 = 0.652): 41.17 ± 0.28 | relative permittivity ([2]; x2 = 0.732): 36.15 ± 0.25 | relative permittivity ([2]; x2 = 0.816): 31.37 ± 0.21 | relative permittivity ([2]; x2 = 0.905): 27.6 ± 0.18

NC=O [formamide] + OCCO
relative permittivity ([2]; x2 = 0): 106.14 ± 0.64 | relative permittivity ([2]; x2 = 0.048): 103.75 ± 0.63 | relative permittivity ([2]; x2 = 0.099): 100.44 ± 0.62 | relative permittivity ([2]; x2 = 0.151): 96.49 ± 0.6 | relative permittivity ([2]; x2 = 0.206): 92.28 ± 0.57 | relative permittivity ([2]; x2 = 0.263): 88.7 ± 0.55 | relative permittivity ([2]; x2 = 0.322): 84.61 ± 0.53 | relative permittivity ([2]; x2 = 0.384): 80.3 ± 0.5 | relative permittivity ([2]; x2 = 0.449): 75.79 ± 0.48 | relative permittivity ([2]; x2 = 0.517): 70.99 ± 0.45 | relative permittivity ([2]; x2 = 0.588): 66.04 ± 0.42 | relative permittivity ([2]; x2 = 0.662): 61.55 ± 0.39 | relative permittivity ([2]; x2 = 0.74): 56.35 ± 0.36 | relative permittivity ([2]; x2 = 0.823): 51.05 ± 0.33 | relative permittivity ([2]; x2 = 0.909): 46.12 ± 0.3
